Experimental data from patent publication US20130324543A1, “REVERSAL OF HIGH BREAST CANCER RISK IN MAMMALS EXPOSED TO ESTROGENIC CHEMICALS IN UTERO BY ADULT EXPOSURE TO HDAC AND DNMT INHIBITORS” (Georgetown University, priority 2012, published 2013).
“Also recorded” adds a separate entry of the source.

Key:
[1] = Puberty onset (vaginal opening) of female mice exposed in utero; format: in vivo, C57BL/6 mice
Description: To assess possible changes in sexual maturation due to in utero ECD exposures during embryogenesis, the day of puberty onset was recorded, as defined based on vaginal opening (VO) in female mice. The mice were examined once a day starting on PND 21. In sexually mature mice, the stage of estrus cycle was determined based on the cytology of their vaginal smear (sampled by pipetting 20 μl PBS in and out of vagina onto a slide) as judged under the microscope. Stage of estrus cycle was determined for each mouse before necropsy and sample collection.

[2] = Litter size and pup weight in F1-F3 rat generations; format: in vivo, Sprague-Dawley rats; conditions: diet of the F0 dams; any of the three generations
Description: Pregnant dams were weighed once a week to monitor changes in weight gain. The birth weight of pups and number of pups per litter were recorded. To avoid litter-effect, pups were crossfostered 1-2 days after dams gave birth. Pups from 2-4 dams were pooled and housed in a litter of 8-10 pups per nursing dam (which had the same dietary/hormonal exposure during pregnancy as the pups' mothers). All pups were weaned on postnatal day 21.

[3] = Immediate adverse effects of dietary exposure in adult non-pregnant littermates of dams; format: in vivo, mice; conditions: last day of dietary exposure, data not shown
Description: For ethical reasons non-pregnant littermate females were used for blood collection instead of the dams, and the samples were taken on the last day of their dietary exposure. Blood was collected by heart puncture of anesthetized mice prior to euthanasia, and serum was separated by centrifugation (1000×g for 10 min) and stored frozen until hormone measurements.
In addition, possible immediate adverse effects of EE2, BPA and GEN exposure for adult mice were evaluated using the non-pregnant littermates of dams. Their body weights were recorded and the mammary gland morphology examined on the last day of their dietary exposure.

C#C[C@]1(O)CC[C@H]2[C@@H]3CCc4cc(O)ccc4[C@H]3CC[C@@]21C [EE2, ethinyl estradiol]
puberty onset / vaginal opening ([1]; female offspring, in utero exposure): significantly earlier puberty onset; also recorded: significantly accelerated
puberty onset ([1]; female pups, instead of PND 32): 27 PND
litter size or pups weight [2]: did not affect
body weight or mammary epithelial development [3]: No significant differences
